Patent US20050123902A1, “Human papillomavirus inhibitors” (priority 2003, published 2005)

Biological target: HPV-16 E2 protein (Human papillomavirus type 16, UniProt P03120)
Assay: Determination of dissociation constants by surface plasmon resonance (Biacore 3000, captured GST-E2 fusion)
Format: binding
Details: steady state model, PBST containing 2% (v/v) DMF, read-out: dissociation constant
Protocol: Surface Plasmon Resonance Instrument. Surface plasmon resonance experiments were performed with a Biacore® 3000 Biosensor (Biacore AB, Uppsala, Sweden). To keep the instrument in good working condition, a series of washing steps were performed on a weekly basis. In addition to the prescribed maintenance washes, the fluidic system was primed three times in a row with the following reagents: 0.5% (w/v) SDS, 6 M urea, 1% (v/v) acetic acid, and 0.2 M NaHCO3. When not in use, a standby program injects water at a flow rate of 5 μL/minute to prevent salt build-up in the lines or integrated fluidic cartridge. Whenever running buffer was changed, the system was primed three times in order to equilibrate the sensor chip and the instrument.
Immobilization of anti-GST Antibody. A CM5 sensor chip was docked and the system was primed three times with filtered and degassed PBST containing 5% (v/v) DMF. Affinity purified and sterile filtered goat-anti-GST IgG (0.8 mg/mL in 150 mM NaCl) from the Biacore GST kit for fusion capture was diluted to 30 μg/mL in 10 mM sodium acetate, pH 5.0 (100 μL per immobilization). Two flow cells were activated with 1:1 NHS:EDC (N-hydroxysuccinimide:[…]) for 8 minutes at a flow rate of 5 μL/min using the “surface preparation: immobilization: amine coupling” wizard application. […]

HPV-16 E2 protein, sequence (P03120 whole entry, the tested form may be a part): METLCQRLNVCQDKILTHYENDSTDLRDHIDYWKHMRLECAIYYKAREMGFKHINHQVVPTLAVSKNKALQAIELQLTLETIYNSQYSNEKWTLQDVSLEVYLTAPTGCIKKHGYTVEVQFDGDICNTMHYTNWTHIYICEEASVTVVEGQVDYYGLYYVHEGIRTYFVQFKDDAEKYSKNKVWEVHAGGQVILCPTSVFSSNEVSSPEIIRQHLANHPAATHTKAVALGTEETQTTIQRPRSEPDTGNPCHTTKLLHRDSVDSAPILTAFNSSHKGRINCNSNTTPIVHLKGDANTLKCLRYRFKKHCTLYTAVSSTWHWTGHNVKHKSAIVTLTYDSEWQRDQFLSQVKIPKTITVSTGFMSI

## Cn1nnnc1SC[C@@H]1C[C@H](c2ccc(CO)cc2)O[C@H](c2ccc(CN)cc2)O1 [compound 2]
  Kd: 2.7 nM
